Values quoted from earlier work, collected in paper PMC9851200, “Multiparameter phenotypic screening for endogenous TFEB and TFE3 translocation identifies novel chemical series modulating lysosome function” (Autophagy, 2022).

Legend:
Set-up in all cases: method as in original PKIS2 published data
[1] = biological target: kinases (KINOMEscan panel) (Homo sapiens, UniProt P04626); details: kinase ERBB2; Published KINOMEscan; ref original PKIS2 published data; cited from earlier work
[2] = biological target: kinases (KINOMEscan panel) (Homo sapiens, UniProt P06241); details: kinase FYN; Published KINOMEscan; ref original PKIS2 published data; cited from earlier work
[3] = biological target: kinases (KINOMEscan panel) (Homo sapiens, UniProt Q02779); details: kinase MAP3K10; Published KINOMEscan; ref original PKIS2 published data; cited from earlier work
Chain of kinases (KINOMEscan panel) (Homo sapiens, UniProt Q02779) (Q02779 whole entry): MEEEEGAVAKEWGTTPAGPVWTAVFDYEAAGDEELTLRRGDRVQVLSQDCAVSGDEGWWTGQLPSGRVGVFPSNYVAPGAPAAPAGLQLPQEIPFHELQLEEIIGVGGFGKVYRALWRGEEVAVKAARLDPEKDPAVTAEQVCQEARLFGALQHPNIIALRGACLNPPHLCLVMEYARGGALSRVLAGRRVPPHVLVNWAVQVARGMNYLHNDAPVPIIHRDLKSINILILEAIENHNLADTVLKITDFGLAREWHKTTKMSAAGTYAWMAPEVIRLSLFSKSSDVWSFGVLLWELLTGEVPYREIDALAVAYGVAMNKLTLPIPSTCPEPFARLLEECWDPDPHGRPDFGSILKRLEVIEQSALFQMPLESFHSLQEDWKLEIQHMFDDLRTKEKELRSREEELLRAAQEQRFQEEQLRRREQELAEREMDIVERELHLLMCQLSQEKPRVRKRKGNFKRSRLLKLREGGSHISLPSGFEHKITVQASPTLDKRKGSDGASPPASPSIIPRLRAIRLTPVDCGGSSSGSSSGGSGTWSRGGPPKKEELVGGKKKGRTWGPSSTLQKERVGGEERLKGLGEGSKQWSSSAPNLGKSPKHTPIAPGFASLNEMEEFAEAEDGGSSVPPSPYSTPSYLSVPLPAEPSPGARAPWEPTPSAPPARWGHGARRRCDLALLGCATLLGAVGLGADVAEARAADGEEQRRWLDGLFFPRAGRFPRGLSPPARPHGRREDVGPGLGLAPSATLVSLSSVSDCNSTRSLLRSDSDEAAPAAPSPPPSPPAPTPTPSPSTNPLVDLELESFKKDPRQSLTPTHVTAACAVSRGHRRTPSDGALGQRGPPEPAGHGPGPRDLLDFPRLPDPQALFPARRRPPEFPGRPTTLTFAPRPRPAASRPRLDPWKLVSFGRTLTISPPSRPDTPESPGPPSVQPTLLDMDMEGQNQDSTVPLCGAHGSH

[4] = biological target: T1, kinases (KINOMEscan panel) (Homo sapiens, UniProt Q14164); details: cited from earlier work
T1 sequence (Q14164 1-716): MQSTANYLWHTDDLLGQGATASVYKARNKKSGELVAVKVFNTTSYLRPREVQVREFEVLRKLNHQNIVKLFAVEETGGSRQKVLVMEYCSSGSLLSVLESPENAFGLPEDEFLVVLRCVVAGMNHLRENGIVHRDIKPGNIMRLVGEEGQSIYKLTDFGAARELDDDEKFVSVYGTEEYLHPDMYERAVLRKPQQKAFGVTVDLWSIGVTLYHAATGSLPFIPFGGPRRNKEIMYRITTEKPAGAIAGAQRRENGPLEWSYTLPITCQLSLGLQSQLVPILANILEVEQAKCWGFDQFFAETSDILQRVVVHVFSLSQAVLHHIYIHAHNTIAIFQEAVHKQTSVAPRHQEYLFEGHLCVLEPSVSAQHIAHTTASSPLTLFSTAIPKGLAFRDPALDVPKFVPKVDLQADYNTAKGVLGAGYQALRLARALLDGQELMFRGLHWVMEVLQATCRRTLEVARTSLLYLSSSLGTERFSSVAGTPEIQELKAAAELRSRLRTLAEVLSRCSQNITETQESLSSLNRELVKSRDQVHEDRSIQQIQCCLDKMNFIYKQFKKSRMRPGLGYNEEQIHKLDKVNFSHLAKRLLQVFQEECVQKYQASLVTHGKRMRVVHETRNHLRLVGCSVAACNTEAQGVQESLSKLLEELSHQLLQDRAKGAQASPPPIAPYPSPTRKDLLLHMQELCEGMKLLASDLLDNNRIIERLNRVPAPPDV

[5] = biological target: kinases (KINOMEscan panel) (Homo sapiens, UniProt Q5S007); details: Published KINOMEscan; ref original PKIS2 published data; cited from earlier work
Chain of kinases (KINOMEscan panel) (Homo sapiens, UniProt Q5S007) (Q5S007 whole entry): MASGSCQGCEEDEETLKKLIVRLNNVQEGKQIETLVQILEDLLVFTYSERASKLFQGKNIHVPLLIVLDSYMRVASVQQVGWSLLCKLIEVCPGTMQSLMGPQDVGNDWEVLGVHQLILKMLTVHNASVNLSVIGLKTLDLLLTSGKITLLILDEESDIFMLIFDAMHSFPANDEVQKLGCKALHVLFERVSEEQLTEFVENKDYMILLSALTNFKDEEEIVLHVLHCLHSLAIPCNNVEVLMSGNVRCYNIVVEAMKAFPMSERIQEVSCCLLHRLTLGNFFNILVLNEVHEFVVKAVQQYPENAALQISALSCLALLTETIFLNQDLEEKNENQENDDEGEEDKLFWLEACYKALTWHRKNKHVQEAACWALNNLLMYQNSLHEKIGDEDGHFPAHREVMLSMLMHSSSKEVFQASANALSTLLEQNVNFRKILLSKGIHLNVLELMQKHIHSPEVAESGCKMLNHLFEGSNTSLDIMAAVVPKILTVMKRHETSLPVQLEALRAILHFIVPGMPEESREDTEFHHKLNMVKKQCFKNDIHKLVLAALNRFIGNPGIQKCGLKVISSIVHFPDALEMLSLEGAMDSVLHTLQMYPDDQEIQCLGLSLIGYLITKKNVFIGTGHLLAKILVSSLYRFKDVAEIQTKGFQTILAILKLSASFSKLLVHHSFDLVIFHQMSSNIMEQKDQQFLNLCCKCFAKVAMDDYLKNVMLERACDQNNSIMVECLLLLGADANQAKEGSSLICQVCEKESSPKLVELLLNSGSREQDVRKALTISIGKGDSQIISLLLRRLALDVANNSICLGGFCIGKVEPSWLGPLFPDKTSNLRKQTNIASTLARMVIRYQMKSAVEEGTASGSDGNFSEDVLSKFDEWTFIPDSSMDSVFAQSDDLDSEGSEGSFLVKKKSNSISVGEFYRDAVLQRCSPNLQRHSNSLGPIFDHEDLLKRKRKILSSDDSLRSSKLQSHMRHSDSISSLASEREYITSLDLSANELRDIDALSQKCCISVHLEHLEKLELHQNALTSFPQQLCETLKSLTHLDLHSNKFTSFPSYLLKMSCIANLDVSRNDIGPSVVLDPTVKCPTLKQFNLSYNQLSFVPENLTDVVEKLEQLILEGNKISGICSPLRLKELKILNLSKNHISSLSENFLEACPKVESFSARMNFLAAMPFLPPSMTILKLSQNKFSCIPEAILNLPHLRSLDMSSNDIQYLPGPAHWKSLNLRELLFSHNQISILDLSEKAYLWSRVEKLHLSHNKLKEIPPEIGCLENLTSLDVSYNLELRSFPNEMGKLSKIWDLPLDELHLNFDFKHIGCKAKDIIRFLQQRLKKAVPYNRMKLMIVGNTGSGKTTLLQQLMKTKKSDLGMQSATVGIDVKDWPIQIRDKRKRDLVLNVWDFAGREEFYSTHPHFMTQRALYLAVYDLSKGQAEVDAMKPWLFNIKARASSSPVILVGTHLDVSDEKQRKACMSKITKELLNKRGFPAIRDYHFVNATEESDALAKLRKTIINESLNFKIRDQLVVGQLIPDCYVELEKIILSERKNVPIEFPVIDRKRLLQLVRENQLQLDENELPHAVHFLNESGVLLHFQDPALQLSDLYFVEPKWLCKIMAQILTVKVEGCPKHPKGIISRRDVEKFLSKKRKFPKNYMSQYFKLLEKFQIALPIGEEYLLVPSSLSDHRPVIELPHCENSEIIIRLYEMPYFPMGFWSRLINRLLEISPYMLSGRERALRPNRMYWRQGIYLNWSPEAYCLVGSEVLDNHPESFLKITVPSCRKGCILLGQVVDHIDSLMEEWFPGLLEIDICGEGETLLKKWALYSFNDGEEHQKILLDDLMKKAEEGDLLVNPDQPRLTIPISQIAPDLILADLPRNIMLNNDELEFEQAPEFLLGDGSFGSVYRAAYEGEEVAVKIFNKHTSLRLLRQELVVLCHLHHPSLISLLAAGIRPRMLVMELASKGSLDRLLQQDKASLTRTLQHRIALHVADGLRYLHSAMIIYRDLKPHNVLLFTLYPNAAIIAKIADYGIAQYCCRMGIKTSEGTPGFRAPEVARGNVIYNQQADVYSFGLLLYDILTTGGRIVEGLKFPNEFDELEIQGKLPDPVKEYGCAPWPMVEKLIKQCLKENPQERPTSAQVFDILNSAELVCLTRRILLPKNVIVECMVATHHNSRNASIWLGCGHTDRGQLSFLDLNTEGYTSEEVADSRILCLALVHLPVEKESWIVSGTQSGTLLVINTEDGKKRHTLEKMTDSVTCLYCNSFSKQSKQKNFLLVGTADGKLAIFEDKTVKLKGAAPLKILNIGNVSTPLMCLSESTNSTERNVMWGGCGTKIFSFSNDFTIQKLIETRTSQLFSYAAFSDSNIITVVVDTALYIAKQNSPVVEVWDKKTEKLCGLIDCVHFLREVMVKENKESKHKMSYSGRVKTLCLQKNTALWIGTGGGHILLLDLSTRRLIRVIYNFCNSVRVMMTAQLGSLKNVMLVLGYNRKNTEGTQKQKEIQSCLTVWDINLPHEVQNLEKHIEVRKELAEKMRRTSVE

[6] = biological target: T2, kinases (KINOMEscan panel) (Homo sapiens, UniProt Q9NRP7); details: STK36; Published KINOMEscan; ref original PKIS2 published data; cited from earlier work
T2 sequence (Q9NRP7 1-1315): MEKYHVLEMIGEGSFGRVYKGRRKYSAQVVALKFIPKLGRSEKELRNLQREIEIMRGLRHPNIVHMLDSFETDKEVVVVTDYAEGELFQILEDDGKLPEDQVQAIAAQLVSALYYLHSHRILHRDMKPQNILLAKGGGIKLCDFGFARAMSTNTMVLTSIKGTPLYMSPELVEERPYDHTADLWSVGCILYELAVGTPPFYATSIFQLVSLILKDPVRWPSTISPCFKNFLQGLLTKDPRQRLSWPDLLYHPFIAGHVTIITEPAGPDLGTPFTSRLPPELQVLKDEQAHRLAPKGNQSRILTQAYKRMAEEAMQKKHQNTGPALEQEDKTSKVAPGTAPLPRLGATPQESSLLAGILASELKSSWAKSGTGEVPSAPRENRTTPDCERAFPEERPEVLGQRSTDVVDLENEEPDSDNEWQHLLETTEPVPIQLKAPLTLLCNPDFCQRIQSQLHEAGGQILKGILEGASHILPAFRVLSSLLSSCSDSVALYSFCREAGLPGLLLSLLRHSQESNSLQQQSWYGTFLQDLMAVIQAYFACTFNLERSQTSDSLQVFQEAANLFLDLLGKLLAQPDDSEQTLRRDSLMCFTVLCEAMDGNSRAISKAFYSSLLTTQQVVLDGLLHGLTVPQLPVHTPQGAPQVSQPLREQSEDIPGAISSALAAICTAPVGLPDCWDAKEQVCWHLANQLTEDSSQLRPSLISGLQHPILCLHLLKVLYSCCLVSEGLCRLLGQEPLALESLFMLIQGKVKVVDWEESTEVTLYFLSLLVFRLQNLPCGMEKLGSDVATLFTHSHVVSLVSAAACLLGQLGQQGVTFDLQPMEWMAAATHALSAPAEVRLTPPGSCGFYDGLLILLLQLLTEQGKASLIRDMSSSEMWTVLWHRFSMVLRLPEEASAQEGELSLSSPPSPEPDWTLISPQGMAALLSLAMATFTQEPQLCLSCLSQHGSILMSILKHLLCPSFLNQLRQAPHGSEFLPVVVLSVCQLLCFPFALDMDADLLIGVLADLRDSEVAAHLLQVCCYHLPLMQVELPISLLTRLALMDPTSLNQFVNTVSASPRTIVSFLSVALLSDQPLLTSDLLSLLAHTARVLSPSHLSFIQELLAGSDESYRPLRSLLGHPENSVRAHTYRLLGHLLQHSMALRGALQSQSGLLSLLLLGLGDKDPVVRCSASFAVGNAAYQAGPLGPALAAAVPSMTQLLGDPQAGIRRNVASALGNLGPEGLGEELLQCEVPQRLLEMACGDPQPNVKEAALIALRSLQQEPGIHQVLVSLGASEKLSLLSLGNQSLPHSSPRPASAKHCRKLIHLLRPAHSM

Chain of kinases (KINOMEscan panel) (Homo sapiens, UniProt P04626) (P04626 23-1255): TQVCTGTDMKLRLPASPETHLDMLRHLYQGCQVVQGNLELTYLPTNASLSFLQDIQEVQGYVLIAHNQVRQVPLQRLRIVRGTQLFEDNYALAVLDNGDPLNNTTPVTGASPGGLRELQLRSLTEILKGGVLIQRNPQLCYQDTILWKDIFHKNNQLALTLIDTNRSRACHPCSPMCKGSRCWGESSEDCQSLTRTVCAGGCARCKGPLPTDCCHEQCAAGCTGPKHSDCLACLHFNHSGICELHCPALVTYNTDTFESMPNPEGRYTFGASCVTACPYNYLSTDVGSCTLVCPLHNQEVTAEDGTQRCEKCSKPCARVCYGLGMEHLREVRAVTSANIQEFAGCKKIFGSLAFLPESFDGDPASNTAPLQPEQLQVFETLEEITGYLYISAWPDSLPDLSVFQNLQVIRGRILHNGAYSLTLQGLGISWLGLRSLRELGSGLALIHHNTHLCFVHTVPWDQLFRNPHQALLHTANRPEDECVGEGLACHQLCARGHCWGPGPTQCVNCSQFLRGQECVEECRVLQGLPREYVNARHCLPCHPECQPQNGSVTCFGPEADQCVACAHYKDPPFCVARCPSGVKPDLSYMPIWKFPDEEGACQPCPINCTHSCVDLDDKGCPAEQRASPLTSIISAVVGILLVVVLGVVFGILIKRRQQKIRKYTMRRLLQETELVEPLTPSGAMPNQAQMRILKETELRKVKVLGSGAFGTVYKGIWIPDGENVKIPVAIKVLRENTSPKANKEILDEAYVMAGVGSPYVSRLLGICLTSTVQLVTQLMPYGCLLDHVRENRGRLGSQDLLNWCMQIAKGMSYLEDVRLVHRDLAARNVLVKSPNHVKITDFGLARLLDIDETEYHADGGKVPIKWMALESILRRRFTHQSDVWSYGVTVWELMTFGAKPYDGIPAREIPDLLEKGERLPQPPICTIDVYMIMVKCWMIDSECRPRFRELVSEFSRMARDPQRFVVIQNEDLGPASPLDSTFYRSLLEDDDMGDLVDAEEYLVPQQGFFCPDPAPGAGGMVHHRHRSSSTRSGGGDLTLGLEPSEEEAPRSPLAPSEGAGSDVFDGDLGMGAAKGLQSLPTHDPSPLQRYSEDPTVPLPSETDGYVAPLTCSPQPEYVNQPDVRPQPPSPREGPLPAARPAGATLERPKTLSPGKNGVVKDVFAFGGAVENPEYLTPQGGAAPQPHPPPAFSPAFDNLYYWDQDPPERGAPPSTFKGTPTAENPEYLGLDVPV

Cc1cccc(-c2nc(Nc3ccncc3)c3ccccc3n2)n1 [NK215]
KINOMEscan ERBB2 [1]: 7 | KINOMEscan FYN [2]: 13 | KINOMEscan MAP3K10 [3]: 7 | KINOMEscan IKBKE/IKK-epsilon [4]: 0 | KINOMEscan LRRK2 [5]: 0 | KINOMEscan STK36 [6]: 5
